Measurements published in patent US11192932B2, “Heparin-binding domain of IGFBP-2 in the treatment of metabolic disorders” (Amolyt Pharma, priority 2018, dated 2021).
Entries after “also recorded” stand apart in the source; their conditions may differ. No end group written: not given here. *: point of attachment. Stearoyl = CCCCCCCCCCCCCCCCCC(=O)*

How the values were obtained:
ob/ob mice = assay: Intraperitoneal glucose tolerance test (IPGTT) in ob/ob mice after 15 days of treatment; type: in vivo, mouse; settings: 3 mg/kg subcutaneously twice daily for 15 days, overnight fasted, glucose 1 g/kg i.p., vs vehicle
Description: Data shown are blood glucose levels (Mean±SEM) 45 min after intraperitoneal glucose tolerance test (IPGTT). (n=5 in each group; ***: p value <0.001).
After being acclimatized 7 days to the laboratory conditions, nine-week-old male B6. V-Lepob/J. mice (Charles River) were subcutaneously administered with vehicle (NaCl 0.9%) or with a peptide as set forth in SEQ ID NO: 73 (C18:0-HLGLEEPKK) at 3 mg/kg (n=5 animals for each group) twice daily for 15 days. On day 15, fasted (overnight) mice were injected intraperitoneally with glucose at 1 g/kg. Plasma blood glucose (expressed as mmol/L) was recorded at 45 minutes post glucose injection.

Akt = Akt phosphorylation (immunoblot anti-Akt pS473) in C2C12 myotubes; type: cell-based, mouse; settings: peptide incubated 8 hours (FIG. 6)
Description: In particular: HBD1 SEQ ID NO: 73 (C18:0-HLGLEEPKK). The Akt pathway is utilized by both insulin and IGF1 to ultimately induce GLUT4 translocation to the cell membrane to facilitate the uptake and metabolism of glucose.
For signaling studies the cells were prepared the same way except 6-well plates were used. After 6 days incubation in differentiating medium, the cells were washed with serum-free medium. The various treatments were then added in serum free medium containing 0.1% BSA. HBD1 peptides were added and incubated for 8 hours. When utilizing IGF-I, incubation was for 15 minutes after IGF-1 addition. Following incubation the cells were lysed in RIPA buffer and sonicated. The cell lysate was centrifuged and the supernatant analyzed for either Akt or AMPK by SDS PAGE using a 10% gel followed by immunoblotting with the appropriate antibody.
To examine the intracellular transduction pathways utilized by the HBD1 peptides, following treatment with HBD1 peptide SEQ ID NO: 73 (C18:0-HLGLEEPKK), cell lysate proteins were separated by SDS PAGE and immunoblotted with anti-Akt pS473 antibodies.

3T3-LI adipocytes = assay: [3H]-2-deoxyglucose uptake by fully differentiated 3T3-LI adipocytes; type: cell-based, mouse; settings: 3 μg/ml for 24 hours
Description: The cells were exposed to the test compounds at a concentration of 3 μg/ml for 24 hours before testing for [^3H]-2-deoxyglucose uptake.
3T3-LI cells are a mouse fibroblast cell line which when cultured under specific conditions, differentiate into adipocytes.
Differentiation of 3T3-LI cells into adipocytes was achieved using the following protocol. 3T3-L1 cells were seeded in 24-well plates and cultured in 3T3-L1 maintenance medium (DMEM containing 10% fetal bovine serum, 4 mM L-glutamine 1 mM, sodium pyruvate) until the cells were 100% confluent. The cells were then fed with 3T3-L1 maintenance medium and cultured for a further 48 h. To initiate differentiation into adipocytes, the medium was changed to Differentiation medium 1 (DMEM containing 10% fetal bovine serum, 4 mM L-glutamine, 1 mM sodium pyruvate, 0.5 mM IBMX, […]), and cultured for a further 2 days. The medium was then changed to Differentiation medium 2 (DMEM containing 10% fetal bovine serum, 4 mM L-glutamine, 1 mM sodium pyruvate, 1 mg/ml insulin), and cultured for a further 2 days. The medium was then changed to Adipocyte Maintenance medium (DMEM containing 10% fetal bovine serum, 4 mM L-glutamine, 1 mM sodium pyruvate), and cultured for a further 7 days. During this time, the medium was changed every other day. The now fully differentiated adipocytes were utilized for glucose uptake experiments (day 11 from initiation of differentiation). Stock solutions of the HBD1 peptides to be tested were prepared by dilution with 0.9% NaCl solution under sterile conditions in a laminar flow cabinet to a concentration of 1 mg/ml, based on net peptide content. The solutions were homogenized by gentle inversion. Test items were prepared from the stock solutions, and remaining stock solution was aliquoted and stored at −20° C. and used without repeated freeze-thaw cycles.
Glucose uptake experiments were carried our using the following protocol. Prior to beginning the experiment, 100 ml of Krebs Ringer bicarbonate buffer (KRBB)(25 mM Hepes pH 7.4, 118 mM NaCl, 5 mM NaHCO3, 4.7 mM KCl, 1.2 mM KH2PO4, 1.2 mM MgSO4, 2.5 mM CaCl2, 0.2% BSA—Filtered using a 0.2 μm filter) and 100 ml of Incubation medium (DMEM containing 4 mM L-glutamine, 1 mM sodium pyruvate, 1% penicillin streptomycin, 0.2% BSA—Filtered using a 0.2 μm filter) were pre-warmed to 37° C., and 500 ml of KRBB was chilled on ice. Stock solutions of test compounds were diluted to 3 μg/ml final concentrations in pre-warmed Incubation medium and in pre-warmed KRBB. Insulin (positive control), previously diluted 1:1000 in sterile 0.9% NaCl, was further diluted in 10 ml of both medium and buffer to a final concentration of 1 nM. All traces of the medium were carefully removed from the cells using a fine tip. […]

Substance: C18:0-HLGLEEPKK (Stearoyl-HLGLEEPKK) [SEQ ID NO: 73]
- blood glucose levels 45 min after intraperitoneal glucose tolerance test (IPGTT) (ob/ob mice): reduced the plasma glucose levels
- blood glucose levels 45 min after intraperitoneal glucose tolerance test (IPGTT) (ob/ob mice; listed as acylated HBD1 (3-11) fragment): improves glucose intolerance
- phosphorylated Akt (pS473) (Akt): dose-related increase in phosphorylated Akt; also recorded: dose-dependent phosphorylation (activation) of the Akt pathway
- glucose uptake by 3T3-LI adipocytes (3T3-LI adipocytes): stimulated increased glucose uptake
